Laboratory results: patent US11911361B2, “Stable cannabinoid formulations” (priority 2014, dated 2024)

What was measured:
[1] = Pharmacokinetic food-effect study, single 20 mg/kg dose, healthy subjects (Example 17); settings: 7-OH-cannabidiol; for ln(AUC0-inf) Geometric Mean / ln(AUC0-t) Geometric Mean / ln(Cmax) Geometric Mean: least squares geometric mean; for AUC0 / AUC0-0.25 / AUC0-0.5 / AUC0-0.75 / AUC0-1 / AUC0-1.5 / AUC0-2 / AUC0-2.5 / AUC0-3 / AUC0-4 / AUC0-6 / AUC0-8 / AUC0-12 / AUC0-16 / AUC0-24 / AUC0-36 / AUC0-48 / AUC0-72 / AUC0-96 / AUC0-120: single 20 mg/kg cannabidiol oral, mean ± SD; for AUC(0-inf) / AUC(0-t) / AUCextrap / Clast / Cmax / Tlast / t1/2 / λz / Tmax: single 20 mg/kg oral dose of cannabidiol solution; for AUC(0-inf) / AUC(0-t) / AUCextrap / Clast / Cmax / Tlast / t1/2 / λz: mean; for Tmax: median (min, max)
Experimental: An open label, randomized, single-dose, two-period, two-way crossover food-effect study was conducted on healthy subjects. […] Twenty-four (24) subjects were enrolled in the study and each were subjected to the fasted and fed treatment arms in separate periods followed by a 7-day wash-out period. For pharmacokinetic analysis, nominal time and default lambda-z selections were used. All below quantifiable limit values were set to zero and all subjects were included in the analysis.
Data from 13 subjects from the fasted treatment and 24 subject from the fed treatment were included in the pharmacokinetic and statistical analyses.

[2] = test system: paclitaxel-induced mechanical sensitivity; assay: Paclitaxel induced neuropathic pain study (Von Frey mechanical sensitivity); type: in vivo, mice
[3] = 20 mg/kg cannabidiol oral, Fasted
[4] = 20 mg/kg cannabidiol oral, geometric mean (fed)/geometric mean (fasted)

For `C=C(C)[C@@H]1CCC(CO)=C[C@H]1c1c(O)cc(CCCCC)cc1O` [Formulation 7-OH-cannabidiol], the “ln(AUC0-inf) Geometric Mean” value [1, 3] was 657.5873, the “ln(AUC0-t) Geometric Mean” value [1, 3] was 630.3322 and the “ln(Cmax) Geometric Mean” value [1, 3] was 34.8933. For the same molecule, the “ln(AUC0-inf) Geometric Mean” value ([1]; 20 mg/kg cannabidiol oral, Fed) was 4701.4345, the “ln(AUC0-t) Geometric Mean” value ([1]; 20 mg/kg cannabidiol oral, Fed) was 4610.3024 and the “ln(Cmax) Geometric Mean” value ([1]; 20 mg/kg cannabidiol oral, Fed) was 442.6751. For the same molecule, the “ln(AUC0-inf) Ratio (%) (Fed/Fasted)” value [1, 4] was 714.95%, the “ln(AUC0-t) Ratio (%) (Fed/Fasted)” value [1, 4] was 731.41% and the “ln(Cmax) Ratio (%) (Fed/Fasted)” value [1, 4] was 1268.65%. The AUC0 ([1]; fasted) was 0.114 ± 0.410 ng·h/mL, the AUC0-0.25 ([1]; fasted) was 0.101 ± 0.363 ng·h/mL and the AUC0-0.5 ([1]; fasted) was 0.217 ± 0.361 ng·h/mL. It also gave an AUC0-0.75 ([1]; fasted) of 0.954 ± 0.843 ng·h/mL, an AUC0-1 ([1]; fasted) of 2.29 ± 2.13 ng·h/mL and an AUC0-1.5 ([1]; fasted) of 3.91 ± 3.90 ng·h/mL. The AUC0-2 ([1]; fasted) was 5.46 ± 5.23 ng·h/mL, the AUC0-2.5 ([1]; fasted) was 6.81 ± 6.85 ng·h/mL and the AUC0-3 ([1]; fasted) was 7.83 ± 8.27 ng·h/mL. The AUC0-4 ([1]; fasted) was 8.65 ± 8.64 ng·h/mL, the AUC0-6 ([1]; fasted) was 9.79 ± 7.71 ng·h/mL and the AUC0-8 ([1]; fasted) was 18.5 ± 34.2 ng·h/mL. It also gave an AUC0-12 ([1]; fasted) of 10.1 ± 8.36 ng·h/mL, an AUC0-16 ([1]; fasted) of 7.23 ± 4.28 ng·h/mL and an AUC0-24 ([1]; fasted) of 6.09 ± 2.70 ng·h/mL. For the same molecule, the AUC0-36 ([1]; fasted) was 4.39 ± 2.45 ng·h/mL, the AUC0-48 ([1]; fasted) was 3.00 ± 1.91 ng·h/mL and the AUC0-72 ([1]; fasted) was 1.65 ± 1.38 ng·h/mL. It also gave an AUC0-96 ([1]; fasted) of 1.04 ± 1.11 ng·h/mL, an AUC0-120 ([1]; fasted) of 0.511 ± 0.799 ng·h/mL and an AUC0 ([1]; fed) of 0.131 ± 0.537 ng·h/mL. For the same molecule, the AUC0-0.25 ([1]; fed) was 0.221 ± 0.676 ng·h/mL, the AUC0-0.5 ([1]; fed) was 0.980 ± 1.29 ng·h/mL and the AUC0-0.75 ([1]; fed) was 2.87 ± 4.21 ng·h/mL. It also gave an AUC0-1 ([1]; fed) of 7.33 ± 11.7 ng·h/mL, an AUC0-1.5 ([1]; fed) of 47.5 ± 78.5 ng·h/mL and an AUC0-2 ([1]; fed) of 104 ± 150 ng·h/mL. It also gave an AUC0-2.5 ([1]; fed) of 158 ± 202 ng·h/mL, an AUC0-3 ([1]; fed) of 197 ± 235 ng·h/mL and an AUC0-4 ([1]; fed) of 289 ± 290 ng·h/mL. The AUC0-6 ([1]; fed) was 346 ± 188 ng·h/mL, the AUC0-8 ([1]; fed) was 284 ± 128 ng·h/mL and the AUC0-12 ([1]; fed) was 187 ± 121 ng·h/mL. The AUC0-16 ([1]; fed) was 85.7 ± 36.9 ng·h/mL, the AUC0-24 ([1]; fed) was 47.5 ± 23.0 ng·h/mL and the AUC0-36 ([1]; fed) was 26.7 ± 13.1 ng·h/mL. The AUC0-48 ([1]; fed) was 16.9 ± 7.73 ng·h/mL, the AUC0-72 ([1]; fed) was 7.36 ± 3.10 ng·h/mL and the AUC0-96 ([1]; fed) was 4.03 ± 1.94 ng·h/mL. The AUC0-120 ([1]; fed) was 2.41 ± 1.26 ng·h/mL, the AUC(0-inf) ([1]; fasted) was 425.3 ng·h/mL and the AUC(0-t) ([1]; fasted) was 414.7 ng·h/mL. For the same molecule, the AUCextrap ([1]; fasted) was 2.77%, the Clast ([1]; fasted) was 0.561 ng/mL and the Cmax ([1]; fasted) was 22.8 ng/mL. The Tlast ([1]; fasted) was 114.47 h, the t1/2 ([1]; fasted) was 21.36 h and the λz ([1]; fasted) was 0.0348 h⁻¹. The Tmax ([1]; fasted) was 8.00 (2.50, 24.00) h, the AUC(0-inf) ([1]; fed) was 4902 ng·h/mL and the AUC(0-t) ([1]; fed) was 4811 ng·h/mL. The AUCextrap ([1]; fed) was 1.93%, the Clast ([1]; fed) was 2.41 ng/mL and the Cmax ([1]; fed) was 474 ng/mL. For the same molecule, the Tlast ([1]; fed) was 120.00 h, the t1/2 ([1]; fed) was 24.69 h and the λz ([1]; fed) was 0.0292 h⁻¹. The Tmax ([1]; fed) was 6.00 (3.00, 12.00) h.

For `CCCCCc1cc(O)c2c(c1)OC(C)(C)[C@@H]1CCC(C)=C[C@@H]21` [THC, reference compound], the minimal effective dose ([2]; IP) was 2.5 mg/kg, the “dose equi-effective to […] CBD” value ([2]; dose equivalence analysis) was 0.7 mg/kg and the “effect on paclitaxel-induced mechanical sensitivity (in words)” value ([2]; pretreatment 15 minutes prior to each paclitaxel injection, IP) was “significantly attenuated”.
